Measurements reported in US20060287316A1, “METHOD FOR IMPROVING PHARMACOKINETICS OF PROTEASE INHIBITORS AND PROTEASE INHIBITOR PRECURSORS” (priority 2005, published 2006).
Converted amounts (≈) assume the structure as drawn. Read-outs that look alike come from different tables or passages of the source.

Key:
[1] = test system: laboratory adapted HIV strain (NL4-3); test: microbe, parasite or virus in culture; details: for EC50: Human immunodeficiency virus 1, NL43, MT4, MT4 cells infected with NL4-3; for SI (CC50/EC50): ratio of cytotoxicity (CC50) to antiviral activity (EC50)
Experimental: Briefly, the antiviral activity of PL-100 was determined using MT4 cells infected with a laboratory adapted HIV strain (NL4-3). For comparison, seven approved protease inhibitors (PIs) were tested in parallel.
The effect of 40% human serum on the antiviral activity of PL-100 in MT4 cells infected with NL4-3 was therefore evaluated.

[2] = test system: 63 HIV isolates with reduced susceptibility to all approved protease inhibitors; type: cell-based, HIV-1; details: for % FC < 2.5 / % FC < 10 / % FC > 50 / Mean FC / Median FC: 63 diverse, multi-PI-resistant strains; for Mean FC / Median FC: FC in IC50 vs NL-4.3
Description: The cross-resistance profile of PL-100 against 63 HIV isolates with reduced susceptibility to all approved protease inhibitors (P is) including atazanavir was thus tested.
The panel of 63 viral strains was selected based on the following rationale: 1) High-level loss of susceptibility to specific P is; 2) High-level loss of susceptibility to multiple P is; 3) Good representation of the primary mutations. This panel consists of resistant viruses from highly PI-experienced patients with high-level PI resistance.
The genotype of these viruses encompasses a wide variety of mutational patterns. We particularly looked for the following primary PI mutations: D30N, L33F/I, M461/L, G48V, I50L/V, V82A/F/S/T, I84V and L90M as defined by the International AIDS Society (IAS)-USA.
The dark cells indicate a […], the grey cells indicate FC values of 2.5≦FC<10 and the white cells indicate a FC value of; 0≦FC<2.5. The results of cross-resistance profile are further illustrated in the graph of FIG. 1.
In the cross-resistance profiling studies against the 63 resistant strains mentioned herein, EC95 of PL-100 was determined against each strain. The median EC95 represents the concentration required to inhibit 95% of the viral replication of 50% diverse drug-resistant HIV-1 variants tested. Table 8 illustrates the percentage of resistant strains tested with protein-binding adjusted EC95s≦200 ng/ml. The resistant strains are grouped by the number of primary mutations they have.
The EC95 of PL-100 was determined against each of the 63 resistant strains indicated herein. Table 9 illustrates the percentage of resistant strains tested with protein-binding adjusted EC95s≦630 ng/ml. The resistant strains are grouped by the number of primary mutations they have.

[3] = Cytotoxicity in the same cell culture system; type: cell-based; details: human, MT4 cells
Experimental: Cytotoxicity of PL-100 and other P is was evaluated in the same cell culture system. The selectivity index (SI) is the ratio of cytotoxicity (CC50) to antiviral activity (EC50). The selective index is similar to the therapeutic index but relates to in vitro studies.

[4] = Study 4: ritonavir administered first, PL-461 15 or 30 minutes later; type: in vivo, Sprague Dawley rats; details: test compound 15 or 30 minutes later, compared with the method of studies 1-3
Water solubility = type: physicochemical
[5] = Pharmacokinetics of PL-100 and PL-461 in rats; type: in vivo, Sprague Dawley rats (Rattus norvegicus)
Experimental: Animal tested are Sprague Dawley rats (species Rattus norvegicus) of 6-7 weeks old at the start of dosing and were obtained from Charles River (Montreal, Canada). The study usually comprises about 6 animals per groups. […] The rats were fasted 3 h. before dosing and 3 h. after dosing. The formulations are prepared as indicated below. The solutions are stable at room temperature over a week and are covered with aluminum foil to avoid lights. […] The dosing volume for all formulations is 2 mL per kg body weight. Blood sample was collected at 15 min, 30 min, 45 min, 1 […] after the dosing. Blood samples were centrifuged to separate the plasma and separated plasma samples were placed into cryovials and frozen at -80° C. for further analysis. Plasma samples together with standards and quality control samples were treated by protein precipitation and then analyzed by HPLC-MS. […] The PK profile was obtained by administration of the test drugs; PL-100 and PL-461 in rats. […] The pharmacokinetic parameters of PL-100 and PL-461 in rats** was compared.

[6] = Plasma concentration after single oral dose in rats (in vivo cleavage of the phosphate group); design: species or system male Sprague-Dawley rats; details: for AUC: 50 mg/Kg po, vehicle PBS, 3 rats, released active ingredient detected (PL-100 for PL-462, PL-337 for PL-515); for Detection of the administered phosphate compound in blood samples: 50 mg/kg po as aqueous solution
Experimental: To assess the extent of in vivo cleavage of the phosphate group from the putative compounds, PL-100, PL-462 (based on PL-100), PL-337 and PL-515 (based on PL-337) compounds were administered po (per os, (i.e., by mouth)) (50 mg/kg) to male Sprague-Dawley rats and their plasma concentration measured at different time intervals post-administration.
All test articles (PL-100, PL-462, PL-337 and PL-515) were prepared in different vehicle at the final concentration of 25 mg/mL. The vehicle composition is as follows: (1) 20% ethanol; 50% propylene glycol; 0.05% w/v Tween 20 and water (Mix); (2) PBS buffer (PBS).
Test articles were administered to male Sprague-Dawley rats at a single oral dose of 50 mg/kg. Each article was tested in three rats. Blood samples (0.2-0.3 mL) were collected at the post-dose time of 10, 20, 40, 60, 120, 180 and 360 minutes. The harvested blood was centrifuged to isolate plasma. The resulting plasma was separated and stored at −70° C.
Plasma samples together with standards and quality control samples were treated to precipitate proteins, then analyzed by HPLC-MS, for the presence of PL-462, PL-100, PL-515 and PL-337.

[7] = sample O4-148712, 46I/88S, panel ID 122
[8] = sample O4-148713, 46I/88S, panel ID 123
[9] = sample O4-148748, 37S/41K/70E, panel ID 115
[10] = sample O4-148749, 37T/41K/70E, panel ID 151
[11] = sample O3-129578, 46I/82T/84V, panel ID 11
[12] = sample O3-148709 (non-B subtype), 32I/47A, panel ID 1

SMILES	EC50 [1] [nM]	SI (CC50/EC50) [1]	% FC < 2.5 [2] [%]	% FC < 10 [2] [%]	% FC > 50 [2] [%]	Mean FC [2]	Median FC [2]	Fold change in IC50 vs. Reference [2, 8]	Fold change in IC50 vs. Reference [2, 9]	Fold change in IC50 vs. Reference [2, 10]	CC50 [3] [µM]	other results
Cc1cccc(C)c1OCC(=O)N[C@@H](Cc1ccccc1)[C@@H](O)C[C@H](Cc1ccccc1)NC(=O)[C@H](C(C)C)N1CCCNC1=O [Lopinavir]	19	1,474	10	37	19	31.3	17.9	0.7	1	1.3	28	Fold change in IC50 vs. Reference ([2]; sample O3-129586, 30N/88D/90M, panel ID 28): 1.2; Fold change in IC50 vs. Reference [2, 7]: 1.7
Cc1c(O)cccc1C(=O)N[C@@H](CSc1ccccc1)[C@H](O)CN1C[C@H]2CCCC[C@H]2C[C@H]1C(=O)NC(C)(C)C [Nelfinavir]	29	276	10	27	10	31.7	15	4.6	1.6	1.9	8	Fold change in IC50 vs. Reference [2, 11]: 1.6
CC(C)c1nc(CN(C)C(=O)N[C@H](C(=O)N[C@@H](Cc2ccccc2)C[C@H](O)[C@H](Cc2ccccc2)NC(=O)OCc2cncs2)C(C)C)cs1 [Ritonavir, ritonavir]	61	–	–	–	–	–	–	–	–	–	–	–
COC(=O)N[C@H](C(=O)N[C@@H](Cc1ccccc1)[C@@H](O)CN(Cc1ccc(-c2ccccn2)cc1)NC(=O)[C@@H](NC(=O)OC)C(C)(C)C)C(C)(C)C [Atazanavir]	4	13,750	16	38	22	25.7	15.6	–	1.4	1.5	55	Fold change in IC50 vs. Reference [2, 12]: 1
CC(C)(C)NC(=O)[C@@H]1CN(Cc2cccnc2)CCN1C[C@@H](O)C[C@@H](Cc1ccccc1)C(=O)N[C@H]1c2ccccc2C[C@H]1O [Indinavir]	67	–	13	54	5	16.5	8.1	–	–	–	> 100	–
COC(=O)N[C@H](C(=O)NCCCC[C@@H](COP(=O)(O)O)N(CC(C)C)S(=O)(=O)c1ccc(N)cc1)C(c1ccccc1)c1ccccc1 [PL-461, (1S,5S)-(1-{5-[(4-amino-benzenesulfonyl)-isobutyl-amino]-6-phosphonooxy-hexylcarbamoyl}-2,2-diphenyl-ethyl)-carbamic acid methyl ester]	–	–	–	–	–	–	–	–	–	–	–	Increase of pharmacokinetics by sequential administration [4]: as efficient at increasing the pharmacokinetics; Fold more water soluble than PL-100 (Water solubility): > 1800 fold; Water solubility (Water solubility; acidic conditions (FIG. 4)): moderate water solubility; Water solubility (Water solubility; pH>4.5 (FIG. 4)): increases dramatically; solubility (Water solubility; water, pH 7.5, aqueous buffer): 145 mg/mL (≈ 206 mM); Fold improved oral bioavailability over PL-100 ([5]; female, Sprague Dawley, rat, in vivo, po): 2-3 fold; Plasma levels of the Lysine-based compound ([5]; rats, after oral dosing, compared to plasma levels of PL-100): insignificant or under detection limits
COC(=O)N[C@H](C(=O)NCCCC[C@@H](COP(=O)(O)O)N(CC(C)C)S(=O)(=O)c1ccc(N)cc1)C(c1ccccc1)c1ccccc1.[Na] [PL-462, (1S,5S)-(1-{5-[(4-amino-benzenesulfonyl)-isobutyl-amino]-6-phosphonooxy-hexylcarbamoyl}-2,2-diphenyl-ethyl)-carbamic Acid Methyl Ester Sodium Salt]	–	–	–	–	–	–	–	–	–	–	–	AUC [6]: 0.816 ± 0.295 μg/hr * ml; Detection of the administered phosphate compound in blood samples [6]: None of the PL-462 and PL-515 compounds, delivered as aqueous solutions, are detected
CC(C)CN(C[C@@H](O)[C@H](Cc1ccccc1)NC(=O)O[C@H]1CCOC1)S(=O)(=O)c1ccc(N)cc1 [Amprenavir]	47	–	14	52	8	18.5	9.7	–	–	–	> 100	–
CC(C)(C)NC(=O)[C@@H]1C[C@@H]2CCCC[C@@H]2CN1C[C@@H](O)[C@H](Cc1ccccc1)NC(=O)[C@H](CC(N)=O)NC(=O)c1ccc2ccccc2n1 [Saquinavir]	12	1,583	27	40	37	85	23.2	0.6	1.2	1.2	19	Fold change in IC50 vs. Reference ([2]; sample O3-129573, 24I/33F/46I/54L/82A, panel ID 3): 1.5; Fold change in IC50 vs. Reference [2, 11]: 1; Fold change in IC50 vs. Reference ([2]; sample O3-129584, 33F/50V, panel ID 24): 1.7; Fold change in IC50 vs. Reference [2, 12]: 0.2; Fold change in IC50 vs. Reference ([2]; sample O4-148711, 46I/47A/84V, panel ID 119): 1.1; Fold change in IC50 vs. Reference [2, 7]: 1.9; Fold change in IC50 vs. Reference ([2]; sample O4-148712, 46I/88S, panel ID 124): 2; Fold change in IC50 vs. Reference ([2]; sample O4-148721, 32I/46I/47V/50L, panel ID 127): 0.5; Fold change in IC50 vs. Reference ([2]; sample O4-148725, 32I/46L/47V/84V, panel ID 53): 0.8; Fold change in IC50 vs. Reference ([2]; sample O4-148745, 46I/50L/54V/82A, panel ID 99): 2.2
COC(=O)N[C@H](C(=O)NCCCC[C@@H](COP(=O)(O)O)N(CC(C)C)S(=O)(=O)c1ccc(N)c(F)c1)C(c1ccccc1)c1ccccc1 [PL-515, (1S,5S)-(1-{5-[(4-amino-3-fluoro-benzenesulfonyl)-isobutyl-amino]-6-phosphonooxy-hexylcarbamoyl}-2,2-diphenyl-ethyl)-carbamic acid methyl ester]	–	–	–	–	–	–	–	–	–	–	–	AUC [6]: 1.075 ± 0.625 μg/hr * ml; Detection of the administered phosphate compound in blood samples [6]: None of the PL-462 and PL-515 compounds, delivered as aqueous solutions, are detected
